This is an account of results in article PMC8062851, “2-Methoxyestradiol and its derivatives inhibit store-operated Ca^2+ entry in T cells: Identification of a new and potent inhibitor” (Biochimica et Biophysica Acta. Molecular Cell Research, 2021).

The test system of one assay is SOCE in rat TMBP cells. The assay can be described thus: SOCE inhibition, Ca2+ free/Ca2+ re-addition protocol in primary rat TMBP cells. It counts as cell-based. As for the experimental part: Jurkat T-lymphocytes, primary human CD4^+ T cells and H1299 cells were pelleted at 450 ×g for 5 min, rat TMBP at 300 ×g for 8 min at room temperature and were resuspended in 1 ml of either standard JMP medium (Jurkat, H1299 and human CD4^+ T cells) or standard DMEM based medium containing 10% fetal bovine serum (FBS) (v/v) (TMBP cells). Resting TMBP cells (day 5–7 after re-stimulation) after the second to fifth re-stimulation were thawed from liquid nitrogen 12 to 40 h prior to Fura2-loading. After pre-incubation for 5 min at 37 °C, cells were incubated with 4 μM Fura2-AM for 15 min at 37 °C. After addition of the dye, cells were kept in the dark. Afterwards, cells and the dye were diluted by addition of 4 ml standard medium and incubated for another 15 min. Cells were washed twice in Ca^2+ buffer (140 mM NaCl, 5 mM KCl, 1 mM MgSO4, 1 mM CaCl2, 1 mM NaH2PO4, 20 mM HEPES, 5.5 mM glucose; pH 7.4 (NaOH), sterile filtered) and were diluted to a concentration of 2*10^6 cells/ml. […]
10^6 Jurkat T-lymphocytes, H1299 cells, TMBP cells or 4*10^6 primary human CD4^+ T cells were added into a 10 × 10 mm quartz glass cuvette (Hellma Analytics, Germany) that was placed into a fluorescence spectrophotometer (F-2710, Hitachi, Japan). […] Fluorescence intensity was measured at an emission wavelength of 495 ± 5 nm for both excitation wavelengths. […]

A further assay deals with T1, KV channels (Homo sapiens, UniProt P22001).
T1 construct: About 10^5 Jurkat T-lymphocytes were placed into this recording chamber; endogenous in cells; host or cells: Jurkat T-lymphocytes (whole-cell patch clamp)
T1 sequence (P22001 whole entry): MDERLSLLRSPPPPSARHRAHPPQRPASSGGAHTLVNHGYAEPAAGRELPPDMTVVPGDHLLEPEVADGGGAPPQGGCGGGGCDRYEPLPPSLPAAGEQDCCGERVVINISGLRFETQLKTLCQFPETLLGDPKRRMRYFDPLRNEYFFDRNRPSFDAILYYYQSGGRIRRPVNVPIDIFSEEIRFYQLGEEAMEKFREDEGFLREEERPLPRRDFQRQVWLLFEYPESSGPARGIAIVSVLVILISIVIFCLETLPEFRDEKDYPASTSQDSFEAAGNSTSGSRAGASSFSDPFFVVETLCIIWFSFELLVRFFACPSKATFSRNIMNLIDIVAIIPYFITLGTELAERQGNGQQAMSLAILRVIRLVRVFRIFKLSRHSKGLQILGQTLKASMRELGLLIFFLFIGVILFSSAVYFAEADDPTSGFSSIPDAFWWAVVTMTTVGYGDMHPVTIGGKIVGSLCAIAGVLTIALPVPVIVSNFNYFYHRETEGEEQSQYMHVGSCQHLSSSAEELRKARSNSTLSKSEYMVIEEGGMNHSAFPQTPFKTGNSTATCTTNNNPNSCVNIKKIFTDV
The assay can be described thus: Whole-cell patch clamp of KV channels in Jurkat T cells. Format: cell-based. The settings on record: STX564 at 10 μM. For orientation: Patch clamp records ionic current or voltage across a cell membrane.

Another assay has as its system SERCA pumps. The assay can be described thus: SERCA activity (ATP-induced Ca2+ reuptake) in permeabilized Jurkat T cells. Format: cell-based, human. As for the experimental part:
3 ∗ 10^7 Jurkat T-lymphocytes per measurement were centrifuged at 450 ×g for 5 min at room temperature. The pellet was rinsed twice, each time using 10 ml permeabilization buffer 1 (120 mM KCl, 10 mM NaCl, 1.2 mM MgCl2, 0.533 mM CaCl2, 1 mM EGTA and 10 mM HEPES, pH 7.2 (KOH), sterile filtered). Subsequently, the pellet was resuspended in 2 ml permeabilization buffer 1 containing 80 μg/ml saponin (Fluka) and the cells were incubated for 10 min at 37 °C. Subsequently, the cells were centrifuged at 450 ×g for 5 min at room temperature and the cell pellet was washed once in 10 ml permeabilization buffer 2 (120 mM KCl, 10 mM NaCl, 1.2 mM MgCl2 and 10 mM HEPES, pH 7.2 (KOH), sterile filtered). Finally, the cells were taken up in 1 ml permeabilization buffer 2, placed into a cuvette and measured at the fluorescence spectrophotometer. Before the start of the measurement, 0.5 μl of 1 mM Fura2 free acid (dissolved in pure water, final concentration: 0.5 μM), 5 μl of 5 mg/ml creatinkinase (dissolved in permeabilization buffer 2, final concentration: 25 μg/ml, 20 U/ml, Roche) and 10 μl of 2 M creatin phosphate (dissolved in permeabilization buffer 2, final concentration: 20 mM, Calbiochem) were added. Fura2 was used to measure the Ca^2+ concentration and creatinkinase and creatin phosphate were used as ATP-regenerating system. The measurement was controlled by FL Solutions (Version 4.1, Hitachi High-Technologies Corporation). Fura2 was alternatively excited every 2 s at 340 ± 5 nm and 380 ± 5 nm, each 400 ms apart. Fluorescence intensity was measured at an emission wavelength of 495 ± 5 nm for both excitation wavelengths. […] Ca^2+ concentrations were calculated according to Grynkiewicz et al. as described earlier in Section 2.4.
As a quantitative read-out for inhibition of IP3 receptors, the peak [Ca^2+] after IP3 addition was subtracted from the mean [Ca^2+] between 25 and 75 s before IP3 addition (dPeak). […] The rate constant K of the fitted data was used as a quantitative read-out for SERCA pump activity and its inhibition.

Assay [1] concerns SOCE in primary human CD4+ T cells. The assay can be described thus: SOCE inhibition, Ca2+ free/Ca2+ re-addition protocol in primary human CD4+ T cells. Format: cell-based. As for the experimental part: Buffy coats were obtained from the blood bank of the University Medical Center Hamburg-Eppendorf (UKE) and peripheral blood mononuclear cells (PBMCs) were isolated by Biocoll density gradient centrifugation (Merck). Human CD4^+ T cells were isolated from PBMCs by negative selection using the EasySep Human CD4^+ T Cell Enrichment Kit (Stemcell Technologies) according to the manufacturer's protocol. The purity of the isolated cells was assessed by flow cytometry.
Jurkat T-lymphocytes, primary human CD4^+ T cells and H1299 cells were pelleted at 450 ×g for 5 min, rat TMBP at 300 ×g for 8 min at room temperature and were resuspended in 1 ml of either standard JMP medium (Jurkat, H1299 and human CD4^+ T cells) or standard DMEM based medium containing 10% fetal bovine serum (FBS) (v/v) (TMBP cells). Resting TMBP cells (day 5–7 after re-stimulation) after the second to fifth re-stimulation were thawed from liquid nitrogen 12 to 40 h prior to Fura2-loading. After pre-incubation for 5 min at 37 °C, cells were incubated with 4 μM Fura2-AM for 15 min at 37 °C. After addition of the dye, cells were kept in the dark. Afterwards, cells and the dye were diluted by addition of 4 ml standard medium and incubated for another 15 min. Cells were washed twice in Ca^2+ buffer (140 mM NaCl, 5 mM KCl, 1 mM MgSO4, 1 mM CaCl2, 1 mM NaH2PO4, 20 mM HEPES, 5.5 mM glucose; pH 7.4 (NaOH), sterile filtered) and were diluted to a concentration of 2*10^6 cells/ml. Subsequently, cells were kept at room temperature for 20 min for de-esterification before the start of the first measurement.
10^6 Jurkat T-lymphocytes, H1299 cells, TMBP cells or 4*10^6 primary human CD4^+ T cells were added into a 10 × 10 mm quartz glass cuvette (Hellma Analytics, Germany) that was placed into a fluorescence spectrophotometer (F-2710, Hitachi, Japan). […] Fluorescence intensity was measured at an emission wavelength of 495 ± 5 nm for both excitation wavelengths.

The structures appear in SMILES notation. Entries after “also recorded” stand apart in the source; their conditions may differ.

For the compound `CCc1cc2c(cc1OS(N)(=O)=O)CC[C@@H]1[C@@H]2CC[C@]2(C)[C@@H](CC#N)CC[C@@H]12` [STX564, 2-ethyl-3-sulfamoyloxy-17β-cyanomethylestra-1,3,5(10)-triene], the concentration for half-maximal inhibition (IC50) with SOCE in rat TMBP cells was found to be 800 nM. In addition, the “effect on KV channel currents” value on KV channels is listed as “does not inhibit KV channels; also recorded: no inhibition; also recorded: does not inhibit the KV1.3 channel”. Further, the “effect on SERCA activity (initial slope of [Ca2+] upon ATP addition)” value with SERCA pumps is “Neither STX564, Synta66 nor vehicle DMSO affected ATP-induced Ca^2+ reuptake by SERCA pumps; also recorded: neither STX564 nor Synta66 showed any effect”. In assay [1] (10 μM), the “Ca2+ release upon drug addition in absence of extracellular Ca2+” value is “Ca^2+ release was observed directly upon drug addition” and the “steady-state plateau phase of Ca2+ entry” value was “re-reached after a few min”. Also, the “initial Ca2+ peak after Ca2+ re-addition and Ca2+ entry at later stages” value in assay [1] (1 and 2 μM) was “efficiently inhibited”.

One may read the IC50 as the midpoint of a concentration-inhibition curve. A low value points to higher potency.
